Here are results for 6 compounds from patent publication US12122763B2, “Substituted piperidines for androgen receptor degradation” (UBIX THERAPEUTICS, INC., priority 2020, dated 2024).

The target of this assay is T1, Androgen Receptor (AR) protein (Homo sapiens, UniProt P10275, T878A).
T1 construct: endogenous in cells; host or cells: LNCaP
As to the kind of experiment: Androgen Receptor (AR) protein degradation assay in LNCaP cells, western blotting. Type of assay: cell-based. The note with it: 20 h; for inhibition at 0.01 µM: 0.01 μM compound; for inhibition at 0.1 µM: 0.1 μM compound; for inhibition at 1 µM: 1 μM compound; for inhibition at 10 µM: 10 μM compound. The gist of the method: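 AR protein level was detected by western blot (ECL) against GAPDH or β-actin controls, with 8 μg lysate protein loaded per lane after BCA quantification. Lysates came from LNCaP cells exposed to test compound for 20 h, following 3 days of growth in RPMI/10% FBS.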

The structures appear in SMILES notation.

T1 sequence (P10275 whole entry T878A): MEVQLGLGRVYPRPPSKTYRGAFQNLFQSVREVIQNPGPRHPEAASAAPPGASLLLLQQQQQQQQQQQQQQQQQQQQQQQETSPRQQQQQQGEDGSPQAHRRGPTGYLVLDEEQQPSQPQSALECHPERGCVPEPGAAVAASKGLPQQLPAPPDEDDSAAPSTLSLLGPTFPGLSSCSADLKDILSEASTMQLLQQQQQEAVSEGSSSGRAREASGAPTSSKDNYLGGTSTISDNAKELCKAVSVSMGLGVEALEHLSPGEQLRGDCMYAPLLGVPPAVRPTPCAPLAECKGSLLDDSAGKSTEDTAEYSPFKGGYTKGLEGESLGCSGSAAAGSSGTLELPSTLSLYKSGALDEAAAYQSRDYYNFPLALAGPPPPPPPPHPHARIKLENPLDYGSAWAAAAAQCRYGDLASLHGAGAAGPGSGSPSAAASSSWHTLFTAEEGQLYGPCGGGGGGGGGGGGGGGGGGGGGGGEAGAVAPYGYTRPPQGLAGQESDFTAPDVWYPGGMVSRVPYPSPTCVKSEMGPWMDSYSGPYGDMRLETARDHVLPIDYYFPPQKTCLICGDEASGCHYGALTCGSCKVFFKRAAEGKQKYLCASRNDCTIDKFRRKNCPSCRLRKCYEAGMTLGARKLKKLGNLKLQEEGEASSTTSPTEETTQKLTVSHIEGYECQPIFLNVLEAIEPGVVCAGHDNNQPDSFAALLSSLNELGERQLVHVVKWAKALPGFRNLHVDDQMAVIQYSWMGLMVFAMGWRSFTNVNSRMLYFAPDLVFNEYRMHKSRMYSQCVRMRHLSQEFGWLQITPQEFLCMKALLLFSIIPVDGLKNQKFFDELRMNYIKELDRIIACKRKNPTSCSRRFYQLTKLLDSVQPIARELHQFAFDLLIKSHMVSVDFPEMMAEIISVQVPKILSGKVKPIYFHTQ
T1 sequence (Q96SW2 whole entry partner): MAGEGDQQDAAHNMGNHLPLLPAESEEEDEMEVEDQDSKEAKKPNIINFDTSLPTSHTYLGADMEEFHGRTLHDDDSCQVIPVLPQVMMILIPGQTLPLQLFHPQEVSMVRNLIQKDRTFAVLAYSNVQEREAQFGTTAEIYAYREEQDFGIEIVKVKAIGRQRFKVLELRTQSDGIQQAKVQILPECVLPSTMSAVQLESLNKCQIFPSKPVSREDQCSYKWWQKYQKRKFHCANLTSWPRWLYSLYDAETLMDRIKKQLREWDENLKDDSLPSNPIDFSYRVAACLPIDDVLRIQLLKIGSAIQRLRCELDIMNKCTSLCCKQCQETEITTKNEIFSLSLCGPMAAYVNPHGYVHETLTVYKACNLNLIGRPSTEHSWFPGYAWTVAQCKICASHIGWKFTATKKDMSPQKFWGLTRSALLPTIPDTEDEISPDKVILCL

In the case of `N#Cc1ccc(N2CCC(C(=O)Nc3ccc(C#CC4CCN(CC5CN(c6ccc7c(c6)C(=O)N(C6CCC(=O)NC6=O)C7=O)C5)CC4)cn3)CC2)cc1C(F)(F)F` (centres unmarked) [Example 132, 1-(4-cyano-3-(trifluoromethyl)phenyl)-N-(5-((1-((1-(2-(2,6-dioxopiperidin-3-yl)-1,3-dioxoisoindolin-5-yl)azetidin-3-yl)methyl)piperidin-4-yl)ethynyl)pyridin-2-yl)piperidine-4-carboxamide], 0.01 µM produced 31% inhibition, testing at 0.1 µM gave an inhibition of 67%, the inhibition at 1 µM is 72% and the inhibition at 10 µM was determined as 77%.
`N#Cc1ccc(N2CCC(C(=O)Nc3ccc(N4CCC(CN5CCN(C[C@H]6CCCN(c7ccc8c(c7)C(=O)N(C7CCC(=O)NC7=O)C8=O)C6)CC5)CC4)cn3)CC2)cc1C(F)(F)F` (stereo partly drawn) [Example 16, 1-(4-cyano-3-(trifluoromethyl)phenyl)-N-(5-(4-((4-(((3R)-1-(2-(2,6-dioxopiperidin-3-yl)-1,3-dioxoisoindolin-5-yl)piperidin-3-yl)methyl)piperazin-1-yl)methyl)piperidin-1-yl)pyridin-2-yl)piperidine-4-carboxamide]: the inhibition at 0.01 µM turned out to be 50%, the inhibition at 0.1 µM turned out to be 94% and the inhibition at 1 µM was 97%.
Compound `N#Cc1ccc(N2CCC(F)(C(=O)Nc3ccc(N4CCC(CN5CCN(CC6CCN(c7ccc8c(c7)CN(C7CCC(=O)NC7=O)C8=O)CC6)CC5)CC4)cn3)CC2)cc1C(F)(F)F` (centres unmarked) [Example 144, 1-(4-cyano-3-(trifluoromethyl)phenyl)-N-(5-(4-((4-((1-(2-(2,6-dioxopiperidin-3-yl)-1-oxoisoindolin-5-yl)piperidin-4-yl)methyl)piperazin-1-yl)methyl)piperidin-1-yl)pyridin-2-yl)-4-fluoropiperidine-4-carboxamide] came in with an inhibition at 0.01 µM of 43%, an inhibition at 0.1 µM of 84% and an inhibition at 1 µM of 95%.
In the case of `N#Cc1ccc(N2CCC(C(=O)Nc3ccc(OCC4CCN(CC5CCN(c6cc7c(cc6F)C(=O)N(C6CCC(=O)NC6=O)C7=O)CC5)CC4)cn3)CC2)cc1C(F)(F)F` (centres unmarked) [Example 181, 1-(4-cyano-3-(trifluoromethyl)phenyl)-N-(5-((1-((1-(2-(2,6-dioxopiperidin-3-yl)-6-fluoro-1,3-dioxoisoindolin-5-yl)piperidin-4-yl)methyl)piperidin-4-yl)methoxy)pyridin-2-yl)piperidine-4-carboxamide], the inhibition at 0.01 µM amounted to 75%, testing at 0.1 µM gave an inhibition of 93% and testing at 1 µM gave an inhibition of 97%.
For `N#Cc1ccc(N2CCC(C(=O)Nc3ccc(CCN4CCN(CC5CCN(c6ccc7c(c6)C(=O)N(C6CCC(=O)NC6=O)C7=O)CC5)CC4)cn3)CC2)cc1C(F)(F)F` (centres unmarked) [Example 166, 1-(4-cyano-3-(trifluoromethyl)phenyl)-N-(5-(2-(4-((1-(2-(2,6-dioxopiperidin-3-yl)-1,3-dioxoisoindolin-5-yl)piperidin-4-yl)methyl)piperazin-1-yl)ethyl)pyridin-2-yl)piperidine-4-carboxamide], in that order: 69%, 96% and 97%.
For the compound `N#Cc1ccc(N2CCC(C(=O)Nc3ccc(N4CCC(CN5CCC6(CC5)CCN(c5ccc7c(c5)C(=O)N(C5CCC(=O)NC5=O)C7=O)CC6)CC4)cn3)CC2)cc1C(F)(F)F` (centres unmarked) [Example 68, 1-(4-cyano-3-(trifluoromethyl)phenyl)-N-(5-(4-((9-(2-(2,6-dioxopiperidin-3-yl)-1,3-dioxoisoindolin-5-yl)-3,9-diazaspiro[5.5]undecan-3-yl)methyl)piperidin-1-yl)pyridin-2-yl)piperidine-4-carboxamide], at 0.01 µM the inhibition was 66%, 0.1 µM produced 91% inhibition, the inhibition at 1 µM came to 90% and the inhibition at 10 µM was 85%.

Usually inhibition stands for the drop in the measured response relative to a control, in per cent.
